Assay results reported in article PMC13170813, “Agmatine coumaroyltransferase gene on the short arm of chromosome 2H is involved in hordatine biosynthesis in barley” (Plant Biotechnology, 2026).

Test system: T1, HvACT-2HS1
T1 construct: full-length, 467 residues; pET28a (NdeI) N-terminal His-tag removed with thrombin; E. coli Rosetta 2 (DE3); 57 kDa SDS-PAGE, 51 kDa native, monomer
Assay: HPLC of product ([…] nm), Michaelis-Menten non-linear fit
Assay type: biochemical, Hordeum vulgare subsp. vulgare
Conditions: 100 mM Tris-HCl pH 8.5, 40°C

Row | Km (100 µM p-coumaroyl-CoA) [µM] | Km (100 µM agmatine) [µM] | Compound
1 | 30 ± 1.3 | – | N=C(N)NCCCCN [Agmatine]
2 | – | 6.6 ± 2.2 | COc1cc(/C=C/C(=O)SCCNC(=O)CCNC(=O)[C@H](O)C(C)(C)COP(=O)(O)OP(=O)(O)OC[C@H]2O[C@@H](n3cnc4c(N)ncnc43)[C@H](O)[C@@H]2OP(=O)(O)O)ccc1O [Feruloyl-CoA]
3 | 30000 | – | NCCCCN [Putrescine]
4 | – | 12 ± 1.3 | CC(C)(COP(=O)(O)OP(=O)(O)OC[C@H]1O[C@@H](n2cnc3c(N)ncnc32)[C@H](O)[C@@H]1OP(=O)(O)O)[C@@H](O)C(=O)NCCC(=O)NCCSC(=O)/C=C/c1ccc(O)cc1 [p-Coumaroyl-CoA]
